Reference: US11524938B2, “Aromatic sulfonamide derivatives” (Bayer Pharma Aktiengesellschaft, priority 2016, dated 2022)
“And” between values parts separate entries of the source, which are not always exact repeats. Identical values can stand only once.

Biological target: T1, human P2X4 (Homo sapiens, UniProt Q99571)
T1 sequence (Q99571 1-388): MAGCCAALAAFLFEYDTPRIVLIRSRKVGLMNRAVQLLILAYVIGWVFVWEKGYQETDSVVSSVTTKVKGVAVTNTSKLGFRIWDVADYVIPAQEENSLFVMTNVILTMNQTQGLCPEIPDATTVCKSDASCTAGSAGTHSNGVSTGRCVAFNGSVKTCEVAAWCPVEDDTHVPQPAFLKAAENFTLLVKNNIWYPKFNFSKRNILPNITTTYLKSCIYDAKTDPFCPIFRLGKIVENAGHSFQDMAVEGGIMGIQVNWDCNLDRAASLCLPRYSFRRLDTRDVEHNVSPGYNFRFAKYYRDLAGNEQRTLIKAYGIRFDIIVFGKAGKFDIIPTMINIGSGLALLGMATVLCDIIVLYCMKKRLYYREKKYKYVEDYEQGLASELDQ
Test: Human P2X4 HEK Cell FLIPR Assay
Assay type: cell-based
Conditions: agonist Bz-ATP at EC80; for Emax: HEK293, HEK293 cells, percentage of maximal inhibition, read-out: Human P2X4 HEK Cells (FLIPR Assay) avg Efficacy [%]; for IC50: HEK293 cells, individual values listed where some fall outside detection range
Method in brief: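 Calcium flux read by FLIPR for 120 sec after Bz-ATP challenge at EC80 (established each assay day), following 30 min room-temperature compound preincubation in dye-loaded stable human P2X4 HEK293 cells. Peak RFU over basal normalized to agonist control; IC50, maximal inhibition and Hill coefficient from triplicate means.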

Row | Structure (SMILES) | Emax [%] | IC50
1 | N#Cc1cnn(-c2ncc(NC(=O)Cc3ccccc3F)cc2S(N)(=O)=O)c1 [Example 382, N-[6-(4-Cyano-1H-pyrazol-1-yl)-5-sulfamoylpyridin-3-yl]-2-(2-fluorophenyl)acetamide] | 87 | 315 nM
2 | NS(=O)(=O)c1cc(NC(=O)Cc2ccc(C(F)F)cc2)ccc1-c1ccc(Cl)nc1 [Example 473, N-[4-(6-Chloropyridin-3-yl)-3-sulfamoylphenyl]-2-[4-(difluoromethyl)phenyl]acetamide] | 93 | 530 nM
3 | NS(=O)(=O)c1cc(NC(=O)Cc2ccccc2Cl)ccc1-c1cnn(CCO)c1 [Example 291, 2-(2-Chlorophenyl)-N-{4-[1-(2-hydroxyethyl)-1H-pyrazol-4-yl]-3-sulfamoylphenyl}acetamide] | 95 | 100 nM
4 | N#Cc1cnn(-c2ccc(NC(=O)Cc3cc(C(F)(F)F)ccc3Cl)cc2S(N)(=O)=O)c1 [Example 485, 2-[2-Chloro-5-(trifluoromethyl)phenyl]-N-[4-(4-cyano-1H-pyrazol-1-yl)-3-sulfamoylphenyl]acetamide] | 100 | 128 nM
5 | NS(=O)(=O)c1cc(NC(=O)Cc2cccc(Cl)c2)ccc1-n1cc(Cl)cn1 [Example 82, 2-(3-Chlorophenyl)-N-[4-(4-chloro-1H-pyrazol-1-yl)-3-sulfamoylphenyl]acetamide] | 36 | > 25000 nM
6 | NS(=O)(=O)c1cc(NC(=O)Cc2ccccc2Cl)c(C(F)(F)F)cc1-n1cc(C(F)(F)F)cn1 [Example 532, 2-(2-Chlorophenyl)-N-{5-sulfamoyl-2-(trifluoromethyl)-4-[4-(trifluoromethyl)-1H-pyrazol-1-yl]phenyl}acetamide] | 60 | 11500 nM and 12900 nM and 17000 nM
7 | N#Cc1cnn(-c2ccc(NC(=O)C(F)(F)c3ccccc3Cl)cc2S(N)(=O)=O)c1 [Example 220, 2-(2-Chlorophenyl)-N-[4-(4-cyano-1H-pyrazol-1-yl)-3-sulfamoylphenyl]-2,2-difluoroacetamide] | 108 | 276 nM
8 | CCOc1ccccc1CC(=O)Nc1ccc(-n2cc(C(F)(F)F)cn2)c(S(N)(=O)=O)c1 [Example 176, 2-(2-Ethoxyphenyl)-N-{3-sulfamoyl-4-[4-(trifluoromethyl)-1H-pyrazol-1-yl]phenyl}acetamide] | 71 | 268 nM
9 | NS(=O)(=O)c1cc(NC(=O)Cc2ccccc2Cl)c(C(F)(F)F)cc1-c1cnn(C(F)F)c1 [Example 491, 2-(2-Chlorophenyl)-N-{4-[1-(difluoromethyl)-1H-pyrazol-4-yl]-5-sulfamoyl-2-(trifluoromethyl)phenyl}acetamide] | 67 | 9090 nM

Further lines, results first:

Row | Emax [%] | IC50 | Structure (SMILES)
10 | 87 | 49 nM | COCCn1cc(-c2ccc(NC(=O)Cc3c(F)cccc3Cl)cc2S(N)(=O)=O)cn1 [Example 350, 2-(2-Chloro-6-fluorophenyl)-N-{4-[1-(2-methoxyethyl)-1H-pyrazol-4-yl]-3-sulfamoylphenyl}acetamide]
11 | 96 | 30 nM | NS(=O)(=O)c1cc(NC(=O)Cc2cccc(F)c2Cl)ccc1-c1cnn(C2CC2)c1 [Example 337, 2-(2-Chloro-3-fluorophenyl)-N-[4-(1-cyclopropyl-1H-pyrazol-4-yl)-3-sulfamoylphenyl]acetamide]
12 | 89 | 58 nM | NS(=O)(=O)c1cc(NC(=O)Cc2ccccc2OC(F)(F)F)ccc1-n1cc(F)cn1 [Example 160, N-[4-(4-Fluoro-1H-pyrazol-1-yl)-3-sulfamoylphenyl]-2-[2-(trifluoromethoxy)phenyl]-acetamide]
13 | 90 | 48 nM | N#Cc1cnn(-c2ccc(NC(=O)Cc3ccc(F)cc3Cl)cc2S(N)(=O)=O)c1 [Example 202, 2-(2-Chloro-4-fluorophenyl)-N-[4-(4-cyano-1H-pyrazol-1-yl)-3-sulfamoylphenyl]-acetamide]
14 | 76 | 43 nM | NS(=O)(=O)c1cc(NC(=O)Cc2ccccc2Cl)ccc1-c1noc(C2CC2)n1 [Example 520, 2-(2-Chlorophenyl)-N-[4-(5-cyclopropyl-1,2,4-oxadiazol-3-yl)-3-sulfamoylphenyl]acetamide]
